# What was measured:
# [1] = tested on: AXIN2 gene expression; test: Expression level of Wnt/β-catenin target gene AXIN2 by real-time PCR in HCT116 cells; format: cell-based, human; details: 10 and 3 μM, 24 hours
# Protocol: Effects of the compound of the present invention on Wnt/β-catenin signaling activity were studied using the real-time PCR method as well as using as an indicator changes in expression levels of target genes of the Wnt/β-catenin signaling pathway. To a RPMI 1640 medium (NACALAI TESQUE, INC.), 10% FBS (AusGeneX PTY LTD.) and 1% Penicillin/Streptomycin (NACALAI TESQUE, INC.) were added to prepare a cell culture medium (hereinafter referred to as medium 1). In a T75 flask, HCT116 cells (ATCC No. CCL-247) were added to the medium 1. The cells in the flask were cultured in the 5% CO2 incubator. The cultured HCT116 cells were diluted with the medium 1 so as to have a cell concentration of 1.1×10^5 cells/mL. Into the T75 flask, 13.5 mL of the diluted cells was seeded, followed by culturing overnight in the 5% CO2 incubator. […] Total RNA concentration was measured by a microspectrophotometer (Thermo Fisher Scientific Inc., Nano Drop ND-1000). […] The results were calculated as the expression ratio of the target gene to the endogenous control gene (β-Actin) by the comparative Ct method using a DMSO group as a reference.
# [2] = tested on: c-MYC protein expression; test: Expression level of Wnt/β-catenin target protein c-MYC by western blotting in HCT116 cells; format: cell-based; details: Homo sapiens, 24 hours, read-out: Inhibition rate (%) c-MYC protein
# Protocol: Expression levels of target proteins of the Wnt/β-catenin signaling pathway was analyzed by western blotting method, and effects of the compound of the present invention on Wnt/β-catenin signaling activity were studied by using a change of these levels as an indicator. HCT116 cells cultured in the same manner as in Test Example 2 were diluted with the medium 1 so as to have a cell concentration of 5×10^5 cells/mL, and 5 mL of the diluted cells were seeded into T25 flasks, followed by culturing overnight in the 5% CO2 incubator. Next day, solutions of the compound to be tested obtained by diluting 10 and 3 mM DMSO stock solutions of the compound to be tested 100-fold with the medium 1 were added to each flask so that the amount of the solution in the flask was one tenth of the amount of the final solution (final concentrations of the compound to be tested: 10 and 3 μM). […] Supernatant was recovered by centrifugal operation (15,000 rpm, 10 min.) and amounts of proteins were determined. […] Thereafter, using a CCD camera (GE Healthcare Co., ImageQuant LAS 500), the respective bands were detected by chemiluminescence. The detected bands were quantified by densitometry (GE Healthcare Co., ImageQuant TL v8.1.0.0). Inhibition rates were calculated from the intensities of the bands in the respective groups, with the luminescence of the band of the DMSO added group being 100%. […]
structure (smiles),measurement,setting,value
"O[C@H]1CC[C@@H](Oc2cccc3cnc(Nc4ccc5nc[nH]c5c4)nc23)CC1 [Example 1, cis-4-({2-[(1H-benzo[d]imidazol-6-yl)amino]quinazolyn-8-yl}oxy)cyclohexanol]",AXIN2 gene expression,[1],inhibited the expression of AXIN2 and c-MYC
same,inhibition at 3 µM,"[2]; HCT-116, 3 μM",63.9%
same,inhibition at 10 µM,"[2]; HCT-116, 10 μM",90.2%
